Assay [1] deals with Luciferin 4-monooxygenase (Photinus pyralis, UniProt P08659). Put plainly: inhibition of purified Photinus pyralis luciferase – biochemical, luminescence, dose response (AID 1891).
Assay [2] is described as follows: Luminescence Cell-Based Dose Confirmation HTS to Identify Inhibitors of Platelet Dense Granule Release. [Related pubchem assays: 1663 (Primary HTS), 1678 (Summary of Project)]. In kind it is functional.
Assay [3] in a line: Fluorescence Cell-Based Dose Response to Identify Inhibitors of Thrombin Receptor-Activating Peptide SFLLRN-Mediated P-Selectin Induction on Platelets. [Related pubchem assays: 1663 (Primary HTS), 1889 (retest at dose ), 1891 (counterscreen), 1678 (Project Summary)]. In kind it is functional.
The target of assay [4] is Mothers against decapentaplegic homolog 3 (Homo sapiens, UniProt P84022). The experiment in a line: inhibitors of SMAD-driven TGF-beta signaling – dose response (AID 715). It is filed as functional.
For another assay, the target named is T1, Estrogen receptor (Homo sapiens, UniProt P03372).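 Also: potency for inhibiting coactivator peptide recruitment to the receptor.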
T1 sequence (P03372 whole entry): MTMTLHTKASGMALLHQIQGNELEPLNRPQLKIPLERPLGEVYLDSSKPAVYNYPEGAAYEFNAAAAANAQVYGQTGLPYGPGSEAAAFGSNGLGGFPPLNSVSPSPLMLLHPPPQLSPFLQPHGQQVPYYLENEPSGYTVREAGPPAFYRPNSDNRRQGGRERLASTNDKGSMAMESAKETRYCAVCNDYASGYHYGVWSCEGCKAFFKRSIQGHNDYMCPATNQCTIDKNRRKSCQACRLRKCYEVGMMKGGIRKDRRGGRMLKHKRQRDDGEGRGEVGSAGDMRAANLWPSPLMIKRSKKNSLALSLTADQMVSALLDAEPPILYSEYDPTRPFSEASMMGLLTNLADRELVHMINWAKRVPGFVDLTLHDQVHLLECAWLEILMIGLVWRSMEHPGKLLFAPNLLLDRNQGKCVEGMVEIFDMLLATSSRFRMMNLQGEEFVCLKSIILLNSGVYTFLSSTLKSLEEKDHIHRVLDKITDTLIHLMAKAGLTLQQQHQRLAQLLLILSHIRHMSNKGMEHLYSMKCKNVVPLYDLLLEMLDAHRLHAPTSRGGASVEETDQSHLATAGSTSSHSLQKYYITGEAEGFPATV

For assay [5], the target named is Protein-tyrosine kinase 2-beta (Homo sapiens, UniProt Q14289).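 Also: potency of inhibitors of PYK2 kinase phosphorylation of poly-GT substrate.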
Assay [6] deals with HEK293. Put plainly: inhibition of NOD1-driven NF-kB reporter – cell-based, luminescence, uHTS, primary screen (AID 1578). Conditions: Homo sapiens. It is filed as functional.
In assay [7] the target is E3 ubiquitin-protein ligase Mdm2 (Homo sapiens, UniProt Q00987). The experiment in a line: MDM2-luc reporter signal enhancers, multi-concentration potency testing, MDM2 ubiquitin-protein ligase inhibitor program, whole-cell format, luminescence detection, 384-well microplate (AID 1394).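 Also: MDM2 E3 inhibitors raise luminescence so EC50 is for signal enhancement.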 In kind it is functional.
Sequence of E3 ubiquitin-protein ligase Mdm2 (Q00987 whole entry): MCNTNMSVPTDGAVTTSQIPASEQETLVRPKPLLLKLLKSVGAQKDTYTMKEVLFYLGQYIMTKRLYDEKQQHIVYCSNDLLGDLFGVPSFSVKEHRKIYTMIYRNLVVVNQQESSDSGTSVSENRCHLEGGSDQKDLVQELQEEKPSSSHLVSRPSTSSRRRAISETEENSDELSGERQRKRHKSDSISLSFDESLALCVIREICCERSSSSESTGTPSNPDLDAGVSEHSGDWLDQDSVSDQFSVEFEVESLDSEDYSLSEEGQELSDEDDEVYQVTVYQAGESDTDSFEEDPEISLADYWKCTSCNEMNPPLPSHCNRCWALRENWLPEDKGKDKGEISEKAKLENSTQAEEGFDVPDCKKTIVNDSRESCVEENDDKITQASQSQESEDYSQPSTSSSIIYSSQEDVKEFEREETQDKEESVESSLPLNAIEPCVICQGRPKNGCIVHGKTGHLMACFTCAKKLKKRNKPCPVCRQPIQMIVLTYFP
Assay [8] concerns BJ. The experiment in a line: BJ-TERT fibroblast viability loss – cell-based, RAS-independent, luminescence, dose response (AID 1933). In kind it is functional. Particulars: Homo sapiens.
Assay [9] has as its system HEK293. The experiment in a line: cells. In kind it is functional, cell-based. Particulars: Homo sapiens.
Assay [10] relates to BJ. The experiment in a line: cells. Particulars: Homo sapiens. It is filed as functional, cell-based.
Assay [11] has as its system HEK293. The experiment in a line: cells. In kind it is functional, cell-based. Particulars: Homo sapiens. This is another data set of the same source.
Assay [12] deals with Nucleotide-binding oligomerization domain-containing protein 2 (Homo sapiens, UniProt Q9HC29). Put plainly: inhibition of NOD2-driven NF-kB reporter – cell-based, luminescence, uHTS, HEK293 (AID 1566). It is filed as functional.
Sequence of Nucleotide-binding oligomerization domain-containing protein 2 (Q9HC29 whole entry, the tested form may be a part): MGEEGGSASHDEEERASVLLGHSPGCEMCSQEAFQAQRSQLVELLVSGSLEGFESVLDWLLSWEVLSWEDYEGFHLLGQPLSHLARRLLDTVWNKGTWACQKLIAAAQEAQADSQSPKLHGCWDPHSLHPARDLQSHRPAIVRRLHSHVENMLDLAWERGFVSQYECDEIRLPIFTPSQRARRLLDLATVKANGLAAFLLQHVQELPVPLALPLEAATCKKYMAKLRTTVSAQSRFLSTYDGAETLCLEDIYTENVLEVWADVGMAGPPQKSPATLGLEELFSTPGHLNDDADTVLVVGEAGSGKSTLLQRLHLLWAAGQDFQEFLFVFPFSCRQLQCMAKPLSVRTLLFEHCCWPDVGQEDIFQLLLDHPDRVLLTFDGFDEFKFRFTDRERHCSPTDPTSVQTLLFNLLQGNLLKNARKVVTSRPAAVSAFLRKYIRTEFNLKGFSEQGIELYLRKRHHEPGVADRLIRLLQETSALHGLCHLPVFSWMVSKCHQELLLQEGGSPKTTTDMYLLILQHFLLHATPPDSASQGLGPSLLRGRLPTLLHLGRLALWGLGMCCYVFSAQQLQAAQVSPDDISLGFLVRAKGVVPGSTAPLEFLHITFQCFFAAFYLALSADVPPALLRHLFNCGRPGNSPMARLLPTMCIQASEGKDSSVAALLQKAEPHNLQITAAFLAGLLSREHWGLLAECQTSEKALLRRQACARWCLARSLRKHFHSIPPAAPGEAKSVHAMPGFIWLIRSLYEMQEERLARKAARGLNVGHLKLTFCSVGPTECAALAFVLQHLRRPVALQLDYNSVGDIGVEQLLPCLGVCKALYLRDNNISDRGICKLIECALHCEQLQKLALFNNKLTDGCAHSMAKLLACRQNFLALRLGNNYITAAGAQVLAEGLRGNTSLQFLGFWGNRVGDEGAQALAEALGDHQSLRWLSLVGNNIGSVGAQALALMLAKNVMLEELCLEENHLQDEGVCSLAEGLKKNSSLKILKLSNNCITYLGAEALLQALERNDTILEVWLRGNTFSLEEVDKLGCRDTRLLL
The subject of assay [13] is HEK293. The experiment in a line: NOD2 signaling inhibitors in MDP-stimulated cells, cell-based, uHTS, luminescence (AID 2001). Particulars: Homo sapiens. It is filed as functional.
The test system of assay [14] is HEK293. Put plainly: cells. It is filed as functional, cell-based. Particulars: Homo sapiens. This is another data set of the same source.
In assay [15] the test system is BJ. Put plainly: BJ-TERT-LT-ST fibroblast viability loss – cell-based, RAS-independent, luminescence, dose response (AID 1935).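 Also: BJ fibroblasts immortalized with TERT plus LT and ST oncogenes.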 Particulars: Homo sapiens. It is filed as functional.
Assay [16] is described as follows: DRD fibroblast viability loss – cell-based, non-viral oncogenic, luminescence, dose response (AID 1934). Particulars: Homo sapiens. In kind it is functional.
Assay [17] deals with Beta-2 adrenergic receptor (Homo sapiens, UniProt P07550). Put plainly: ADRB2 activation measured by internalization – cell-based, FAP fluorogen, flow cytometry, cherry pick 1, dose response (AID 588763). It is filed as functional.
Sequence of Beta-2 adrenergic receptor (P07550 whole entry): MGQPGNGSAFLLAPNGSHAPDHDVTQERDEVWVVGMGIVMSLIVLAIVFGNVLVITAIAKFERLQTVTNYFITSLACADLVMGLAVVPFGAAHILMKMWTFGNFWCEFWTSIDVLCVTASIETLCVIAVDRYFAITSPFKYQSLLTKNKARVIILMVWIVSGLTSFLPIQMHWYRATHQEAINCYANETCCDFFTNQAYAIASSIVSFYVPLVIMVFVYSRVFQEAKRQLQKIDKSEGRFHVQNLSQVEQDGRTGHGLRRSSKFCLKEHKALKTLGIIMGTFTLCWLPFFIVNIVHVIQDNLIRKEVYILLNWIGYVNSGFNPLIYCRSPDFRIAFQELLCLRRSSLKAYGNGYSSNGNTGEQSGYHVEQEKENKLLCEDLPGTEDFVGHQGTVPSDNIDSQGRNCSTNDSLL
A further assay concerns the target Melanocortin receptor 4 (Homo sapiens, UniProt P32245). Put plainly: inhibitors of MC4R cAMP signaling – cell-based, TR-FRET, biased antagonists, dose response (AID 602298).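 Also: antagonist potency against agonist-stimulated cAMP production.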 It is filed as functional.
The nature of assay [18]: cAMP pathway inhibition in counterscreen cell line – TR-FRET cAMP detection, counter-screen for MC4R biased antagonist project, dose response (AID 602305).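 Also: U2OS cells stimulated with forskolin near its EC80 as the cAMP inducer; potency is for inhibition of forskolin-stimulated cAMP signaling.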 It is filed as functional, cell-based.
A short description of assay [19]: HPDE-C7 pancreatic duct cell viability loss – fluorescence, HTS (AID 430). It is filed as functional, cell-based. Particulars: Homo sapiens.
Assay [20] in a line: viability loss of HPDE-C7K cells – cell-based, fluorescence, HTS, primary screen (AID 431). In kind it is functional. Conditions: Homo sapiens.
The target of the next assay is Cytochrome P450 2C19 (Homo sapiens, UniProt P33261). The experiment in a line: qHTS Assay for Inhibitors and Substrates of Cytochrome P450 2C19. [Related pubchem assays: 410 ]. In kind it is ADME. Particulars: read-out: Potency.
Sequence of Cytochrome P450 2C19 (P33261 whole entry): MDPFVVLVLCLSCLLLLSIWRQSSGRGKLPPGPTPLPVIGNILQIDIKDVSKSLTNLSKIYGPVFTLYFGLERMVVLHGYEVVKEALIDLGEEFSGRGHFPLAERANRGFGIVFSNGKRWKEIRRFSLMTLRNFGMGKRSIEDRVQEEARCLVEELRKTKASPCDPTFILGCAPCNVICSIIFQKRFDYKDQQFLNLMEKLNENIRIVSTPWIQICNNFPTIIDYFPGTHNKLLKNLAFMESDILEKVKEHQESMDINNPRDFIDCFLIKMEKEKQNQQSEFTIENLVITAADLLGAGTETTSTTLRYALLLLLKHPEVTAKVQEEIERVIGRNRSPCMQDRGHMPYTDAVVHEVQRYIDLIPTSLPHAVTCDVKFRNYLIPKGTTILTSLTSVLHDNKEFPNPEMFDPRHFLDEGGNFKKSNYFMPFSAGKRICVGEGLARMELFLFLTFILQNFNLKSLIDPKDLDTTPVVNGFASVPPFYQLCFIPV
The target of a further assay is Cytochrome P450 3A4 (Homo sapiens, UniProt P08684). Conditions: Potency.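 Also: confirmatory qHTS run detecting inhibitors and substrates of CYP3A4.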
Sequence of Cytochrome P450 3A4 (P08684 whole entry): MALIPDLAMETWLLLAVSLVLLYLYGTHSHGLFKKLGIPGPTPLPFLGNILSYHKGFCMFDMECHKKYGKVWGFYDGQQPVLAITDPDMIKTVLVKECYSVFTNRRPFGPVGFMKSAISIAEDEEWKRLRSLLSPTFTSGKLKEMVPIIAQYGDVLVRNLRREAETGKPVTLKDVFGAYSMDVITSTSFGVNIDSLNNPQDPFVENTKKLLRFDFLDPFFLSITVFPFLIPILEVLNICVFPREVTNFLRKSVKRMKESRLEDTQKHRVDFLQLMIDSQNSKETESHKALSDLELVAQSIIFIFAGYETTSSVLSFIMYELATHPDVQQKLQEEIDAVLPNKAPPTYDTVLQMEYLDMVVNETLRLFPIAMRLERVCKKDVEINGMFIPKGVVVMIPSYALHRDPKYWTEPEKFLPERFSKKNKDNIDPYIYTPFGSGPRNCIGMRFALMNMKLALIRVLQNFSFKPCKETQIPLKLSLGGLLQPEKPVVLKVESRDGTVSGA
Assay [21] is described as follows: microbe, parasite or virus in culture. It is filed as functional. Conditions: Mycobacterium tuberculosis.
Assay [22] is described as follows: viability of PTEN-deleted HCT116 cells – cell-based, HCT116 PTEN knockout, dose response (AID 1047).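 Also: HCT116 colon tumor cells with PTEN knocked out; cells exposed to compound for 60 hours before readout; potency for loss of cell viability measured by luminescence.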 In kind it is functional.
Assay [23] can be described thus: viability of HCT116 lacking mutant beta-catenin – cell-based, human colon tumor, dose response (AID 1045).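 Also: HCT116 colon tumor cells with beta catenin knocked out; cells exposed to compound for 60 hours.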 It is filed as functional.
The target of a further assay is Ephrin type-A receptor 4 (Mus musculus, UniProt Q03137). Put plainly: EphA4 ligand-binding antagonists – biochemical, colorimetric, mouse EphA4, primary screen (AID 689). In kind it is functional.
Sequence of Ephrin type-A receptor 4 (Q03137 whole entry): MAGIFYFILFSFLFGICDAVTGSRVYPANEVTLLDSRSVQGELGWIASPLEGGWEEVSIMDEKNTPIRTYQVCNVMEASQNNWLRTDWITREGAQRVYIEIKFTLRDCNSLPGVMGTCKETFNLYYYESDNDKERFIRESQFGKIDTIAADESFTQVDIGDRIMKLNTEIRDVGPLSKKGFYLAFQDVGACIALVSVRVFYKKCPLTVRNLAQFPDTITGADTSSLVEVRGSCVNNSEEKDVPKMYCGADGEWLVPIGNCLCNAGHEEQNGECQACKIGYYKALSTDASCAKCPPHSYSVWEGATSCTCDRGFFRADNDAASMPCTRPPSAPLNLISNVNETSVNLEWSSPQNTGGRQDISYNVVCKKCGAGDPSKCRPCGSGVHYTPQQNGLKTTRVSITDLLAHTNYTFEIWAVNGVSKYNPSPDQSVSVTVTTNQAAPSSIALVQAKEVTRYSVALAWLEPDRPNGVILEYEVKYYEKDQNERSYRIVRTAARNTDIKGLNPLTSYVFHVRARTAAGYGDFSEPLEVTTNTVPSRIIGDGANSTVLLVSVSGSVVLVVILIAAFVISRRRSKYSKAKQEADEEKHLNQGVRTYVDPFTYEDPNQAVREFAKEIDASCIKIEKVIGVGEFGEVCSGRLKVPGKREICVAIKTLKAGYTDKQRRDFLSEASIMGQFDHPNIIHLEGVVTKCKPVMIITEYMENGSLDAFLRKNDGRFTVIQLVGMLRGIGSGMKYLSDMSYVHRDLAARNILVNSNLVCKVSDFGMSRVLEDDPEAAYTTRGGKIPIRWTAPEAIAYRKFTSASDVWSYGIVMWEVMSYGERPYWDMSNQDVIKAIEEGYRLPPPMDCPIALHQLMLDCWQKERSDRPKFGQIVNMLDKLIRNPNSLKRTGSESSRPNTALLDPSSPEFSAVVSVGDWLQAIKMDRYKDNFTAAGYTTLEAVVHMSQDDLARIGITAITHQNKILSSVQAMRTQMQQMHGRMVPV
In assay [24] the target is Heat shock protein HSP 90-alpha (Homo sapiens, UniProt P07900). In kind it is functional, organism-based.
In a further assay the target is Cytochrome P450 2D6 (Homo sapiens, UniProt P10635).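 Also: CYP2D6 member of a cytochrome P450 panel assay.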
Sequence of Cytochrome P450 2D6 (P10635 whole entry): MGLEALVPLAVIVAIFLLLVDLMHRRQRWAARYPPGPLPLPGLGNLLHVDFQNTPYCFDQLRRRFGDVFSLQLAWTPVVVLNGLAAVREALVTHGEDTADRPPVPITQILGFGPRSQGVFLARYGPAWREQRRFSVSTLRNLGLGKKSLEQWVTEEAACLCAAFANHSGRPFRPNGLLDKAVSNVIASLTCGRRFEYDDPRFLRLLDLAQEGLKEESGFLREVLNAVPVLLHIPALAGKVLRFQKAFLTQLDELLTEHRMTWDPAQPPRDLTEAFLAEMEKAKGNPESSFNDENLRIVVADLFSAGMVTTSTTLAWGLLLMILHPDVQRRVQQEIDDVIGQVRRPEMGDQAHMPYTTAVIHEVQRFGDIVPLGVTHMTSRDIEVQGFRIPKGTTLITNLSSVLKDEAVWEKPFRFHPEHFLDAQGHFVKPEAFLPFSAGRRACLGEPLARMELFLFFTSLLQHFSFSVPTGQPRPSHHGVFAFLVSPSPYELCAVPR

Molecules are shown by their SMILES. Active and inactive are the calls of the source.

Sequence of Melanocortin receptor 4 (P32245 whole entry): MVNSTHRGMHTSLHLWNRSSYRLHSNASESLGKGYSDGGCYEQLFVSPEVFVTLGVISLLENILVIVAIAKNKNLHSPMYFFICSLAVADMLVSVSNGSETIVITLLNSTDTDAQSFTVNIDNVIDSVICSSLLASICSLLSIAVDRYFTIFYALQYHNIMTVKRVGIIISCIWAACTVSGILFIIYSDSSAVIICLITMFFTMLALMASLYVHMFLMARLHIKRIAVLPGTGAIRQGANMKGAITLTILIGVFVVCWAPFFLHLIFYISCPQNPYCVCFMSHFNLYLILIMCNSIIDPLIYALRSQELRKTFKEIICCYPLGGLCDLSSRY

Regarding `CCS(=O)(=O)Nc1ccc(-c2nnc(SCC(=O)OC)o2)cc1`, the EC50 in assay [1] was > 112 µM (not active); in assay [2] it was 6.33 µM (active); in assay [3], < 30 µM (active).
For the compound `Oc1ccccc1-c1nc(N2CCCC2)c2ccccc2n1`, in assay [4], the IC50 is 14.6 µM (active).
For the compound `O=c1oc2ccccc2n1CCn1c2ccccc2c2nc3ccccc3nc21`, the half-inhibitory concentration (IC50) at Estrogen receptor was 17.9 µM (active); in assay [5], 2.08 µM (active).
`O=C(COC(=O)c1ccccc1C(=O)c1ccc(Cl)c([N+](=O)[O-])c1)NC1CCCCCC1`: the EC50 was 3.78 µM (active) with HEK293 [6]; 12.4 µM (not active) in assay [7]; 4.41 µM (active) in the assay on BJ [8]; 9.86 µM (inconclusive) in the assay with BJ [10]; > 20 µM (inactive) in [12]; 4.91 µM (inconclusive) in the assay on BJ [15]. The EC50 in assay [16] is 4.47 µM (active); in [17], 42.3 µM (inactive). The IC50 is 1.9 µM (active) with HEK293 [9]; 18.3 µM (active) with HEK293 [11]; 3.13 µM (active) in the assay on HEK293 [13]; > 20 µM (inactive) in the assay on HEK293 [14]; 26.6 µM (inactive) at Melanocortin receptor 4; > 64.6 µM (inactive) in [18].
Consider `CCOP(=O)(c1ccccc1)c1nc(-c2ccccc2C)oc1N1CCCCC1` (stereo not given), for which the EC50 in [19] and in assay [20] was > 20 µM (not active) each time.
In the case of `CC1CCC2C(=O)N3C(CCC(C)[C@@H]3c3ccc(Br)cc3)C(=O)N2C1c1ccc(Br)cc1` (stereo not given in full), the AC50 is 3.98 µM (inconclusive) on Cytochrome P450 2C19 and 5.01 µM (inconclusive) on Cytochrome P450 3A4.
As for `O=[N+]([O-])/C=C/c1cn(Cc2ccccc2)c2ccccc12`, the CC50 in assay [21] was > 40 µM (active). Moreover, the EC50 in assay [22] is 15.8 µM (active); in [23], 13.2 µM (active). Further, the IC50 on Ephrin type-A receptor 4 is 2.3 µM (active). For the same compound, the AC50 in [24] was 6.43 µM (active); at Cytochrome P450 2D6, 15.8 µM (inconclusive).
